Values after ≈ are worked out from the molar mass of the structure shown. Read-outs that look alike come from different tables or passages of the source.
Key:
Escherichia coli [1] = test: MIC/MBC, paper disk diffusion; type: cell-based; details: Escherichia coli
Method: (§1) Antimicrobial activities of the newly formed Schiff bases (6a–d, 7a–d, 8a–d, and 9a–d) and reference drugs were evaluated against three Gram-positive, three Gram-negative, and two fungi strain at Al-Azhar University, Cairo, Egypt. The inhibition zones (IZ, in mm ± standard deviation) and the minimal inhibitory concentration (MIC) (μg/mL) were determined by the conventional paper disk diffusion method.
(§2) In Vitro Antimicrobial Activities […]
(§3) DMSO was used for dissolving […]
(§4) the tested microorganisms.
(§5) The minimum inhibitory concentration (MIC), the minimum bactericidal concentration (MBC, µg/ml) and […]
(§6) and 9b) were determined by the conventional technique termed paper disk diffusion, by applying paper […]
(§7) Bacteria were grown on nutrient agar medium, while fungi and yeast were grown on Sabouraud agar medium. The purified streptomycin was dissolved in […]
(§8) inoculated with test organism. Growth inhibition was examined after 24 hr. from incubation at 37 °C for bacteria and after 72 hr. incubation at 27 °C for fungi and yeast. Each test was repeated three times. MIC was expressed as the lowest concentration inhibiting test organism’s growth. […]

Bacillus subtilis [2] = test: MIC/MBC, paper disk diffusion; type: cell-based
Method: as §1, §2, §3, §4, §5, §6, §7, §8

Salmonella typhi [3] = test: MIC/MBC, paper disk diffusion; type: cell-based; details: Salmonella enterica, S. typhi
Method: as §1, §2, §3, §4, §5, §6, §7, §8

Pseudomonas aeruginosa [4] = test: MIC/MBC, paper disk diffusion; type: cell-based; details: Pseudomonas aeruginosa
Method: as §1, §2, §3, §4, §5, §6, §7, §8

Staphylococcus aureus [5] = test: MIC/MBC, paper disk diffusion; type: cell-based; details: Staphylococcus aureus
Method: as §1, §2, §3, §4, §5, §6, §7, §8

Enterococcus faecalis [6] = test: MIC/MBC, paper disk diffusion; type: cell-based
Method: as §1, §2, §3, §4, §5, §6, §7, §8

E. coli ATCC BAA-196 [7] = test: Inhibition zone against MDRB, agar plate diffusion; type: cell-based
[8] = test system: P. aeruginosa ATCC BAA-2111; test: MIC/MBC against MDRB, paper disk diffusion; type: cell-based; details: Pseudomonas aeruginosa, ATCCBAA2111
From the text: (§9) The inhibition zone (IZ, mm±standard deviation) of pyrazole Schiff bases ( 6b, 7b, 7c, 8a, 8d and 9b) was
(§10) measurement according to the agar plate diffusion method against a panel of multidrug-resistant bacteria
(MDRB). […]

S. aureus ATCC 33591 [9] = test: MIC/MBC against MDRB, paper disk diffusion; type: cell-based; details: Staphylococcus aureus, ATCC33591
From the text: as §9, §10
(MDRB). […]

[10] = test system: S. aureus ATCC 43300 (MRSA); test: MIC/MBC against MDRB, paper disk diffusion; type: cell-based; details: Staphylococcus aureus
From the text: as §9, §10
(MDRB). […]

E. coli ATCC BAA-196 [11] = test: MIC/MBC against MDRB, paper disk diffusion; type: cell-based; details: Escherichia coli, ATCCBAA196
From the text: as §9, §10
(MDRB). […]

Escherichia coli [12] = test: Inhibition zone, agar plate diffusion; type: cell-based; details: read-out: Inhibition zone (IZ)
Method: as §1
(§11) In Vitro Antimicrobial Activities
(§12) The antimicrobial activities inhibition zone (IZ, mm±standard deviation) of pyrazole Schiff bases ( 6a-d , 7a-d, 8a-d and 9a-d ) was measurement according to the agar plate diffusion method. Briefly, 100 µl of the […]
(§13) […] of each sample (at 0.5 mg/mL) was added to each well (10 mm diameter holes cut in the agar gel). The plates were incubated for 24 h at 37 °C (for bacteria and yeast) and for 72 h at 27 °C (for filamentous fungi), each test was repeated three times. After incubation, the microorganism's growth was observed. […]
(§14) drugs while Amphotericin B was used as standard antifungal drug. The resulting inhibition zone diameters were measured in millimeters and used as criterion for the antimicrobial activity. Solvent controls (DMSO) were included in every experiment as negative controls. DMSO was used for dissolving […]
(§15) the tested microorganisms. […]

Bacillus subtilis [13] = test: Inhibition zone, agar plate diffusion; type: cell-based; details: read-out: Inhibition zone (IZ)
Method: as §1, §11, §12, §13, §14, §15

Pseudomonas aeruginosa [14] = test: Inhibition zone, agar plate diffusion; type: cell-based; details: read-out: Inhibition zone (IZ)
Method: as §1, §11, §12, §13, §14, §15

Enterococcus faecalis [15] = test: Inhibition zone, agar plate diffusion; type: cell-based; details: read-out: Inhibition zone (IZ)
Method: as §1, §11, §12, §13, §14, §15

Fusarium oxysporum [16] = test: MIC/MFC, paper disk diffusion; type: cell-based; details: Fusarium oxysporum
Method: as §1, §2, §3, §4, §5, §6, §7, §8

Candida albicans [17] = test: MIC/MFC, paper disk diffusion; type: cell-based; details: Candida albicans
Method: as §1, §2, §3, §4, §5, §6, §7, §8

S. aureus ATCC 33591 [18] = test: Inhibition zone against MDRB, agar plate diffusion; type: cell-based
[19] = test system: mammary gland breast cancer cell line (MCF-7); test: Antiproliferative activity, MTT assay; type: cell-based, human; details: Homo sapiens, MCF7, 48 h, read-out: IC50 MCF-7
Method: (§16) 3-[4, 5-Dimethyl-2-thiazolyl)-2, 5-diphenyl-2 H-tetrazolium bromide (MTT) protocol is based on the cleavage of the tetrazolium salt by mitochondrial dehydrogenases in viable cells. Cells were dispensed in a 96 well sterile microplate (5 x 10^4 cells/well), and incubated at 37 °C with series of different concentrations, in DMSO, of each tested compound or Doxorubicin ® (positive control) for 48 h in a serum free medium prior to the MTT assay. After incubation, media were carefully removed, 40 µL of MTT (2.5 mg/mL) were added to each well and then incubated for an additional 4 h. The purple formazan dye crystals were solubilized by the addition of 200 µL of DMSO. The absorbance was measured at 590 nm using a SpectraMax® Paradigm® Multi-Mode microplate reader. The relative cell viability was expressed as the mean percentage of viable cells compared to the untreated control cells.
(§17) All experiments were conducted in triplicate and repeated in three different days. All the values were represented as mean ± SD. IC 50s were determined by probit analysis using SPSS software program (SPSS

[20] = test system: hepatocellular carcinoma cell line (HepG2); test: Antiproliferative activity, MTT assay; type: cell-based, human; details: Homo sapiens, HepG2, 48 h, read-out: IC50 HepG-2
Method: as §16, §17

Salmonella typhi [21] = test: Inhibition zone, agar plate diffusion; type: cell-based; details: Salmonella enterica, St, mm ± standard deviation, sample at 0.5 mg/mL, read-out: Inhibition zone (IZ)
Method: as §1, §11, §12, §13, §14, §15
(§18) Bacteria were grown on nutrient agar medium, while fungi and yeast were grown on Sabouraud agar medium. […]

Staphylococcus aureus [22] = test: Inhibition zone, agar plate diffusion; type: cell-based; details: read-out: Inhibition zone (IZ)
Method: as §1, §11, §12, §13, §14, §15, §18

Fusarium oxysporum [23] = test: Inhibition zone, agar plate diffusion; type: cell-based; details: read-out: Inhibition zone (IZ)
Method: as §1, §11, §12, §13, §14, §15, §18

Candida albicans [24] = test: Inhibition zone, agar plate diffusion; type: cell-based; details: read-out: Inhibition zone (IZ)
Method: as §1, §11, §12, §13, §14, §15, §18

[25] = test system: P. aeruginosa ATCC BAA-2111; test: Inhibition zone against MDRB, agar plate diffusion; type: cell-based
[26] = test system: S. aureus ATCC 43300 (MRSA); test: Inhibition zone against MDRB, agar plate diffusion; type: cell-based

## COc1ccc(Nc2n[nH]c(N=Cc3ccc(N4CCCCC4)cc3)c2C(=O)Nc2ccc(Cl)cc2)cc1 [8d, N-(p-Chlorophenyl)-3-(p-methoxyphenylamino)-5-(4-(piperidin-1-yl)benzylideneamino)-1H-pyrazole-4-carboxamide]
Escherichia coli [1]
  MIC: 7.81 µg/mL (≈ 14.8 µM)
Escherichia coli [1]; E. coli
  MBC: 15.6 µg/mL (≈ 29.5 µM)
Bacillus subtilis [2]; B. subtilis
  Fold more potent than Tetracycline (MIC): 8 fold
Bacillus subtilis [2]; Bacillus subtilis
  MIC: 3.9 µg/mL (≈ 7.37 µM)
Bacillus subtilis [2]; Bacillus subtilis, B. subtilis
  MBC: 6.63 µg/mL (≈ 12.5 µM)
Salmonella typhi [3]
  MIC: 18.5 µg/mL (≈ 35 µM)
Salmonella typhi [3]; read-out: MBC
  MBC: 36.5 µg/mL (≈ 69 µM)
Pseudomonas aeruginosa [4]
  MIC: 27.8 µg/mL (≈ 52.5 µM)
Pseudomonas aeruginosa [4]; P. aeruginosa
  MBC: 55.5 µg/mL (≈ 105 µM)
Staphylococcus aureus [5]
  MIC: 7.81 µg/mL (≈ 14.8 µM)
Staphylococcus aureus [5]; S. aureus
  MBC: 15.6 µg/mL (≈ 29.5 µM)
Enterococcus faecalis [6]
  MIC: 15.6 µg/mL (≈ 29.5 µM)
Enterococcus faecalis [6]; E. faecalis
  MBC: 31.2 µg/mL (≈ 59.1 µM)
E. coli ATCC BAA-196 [7]
  Mean Diameter of Inhibition Zone against MDRB: 16 ± 0.11 mm
[8]
  MBC: 11.9 µg/mL (≈ 22.4 µM)
  MIC: 6.25 µg/mL (≈ 11.8 µM)
S. aureus ATCC 33591 [9]
  MBC: 7.41 µg/mL (≈ 14 µM)
  MIC: 3.9 µg/mL (≈ 7.37 µM)
[10]
  MBC: 31.2 µg/mL (≈ 59.1 µM)
  MIC: 15.6 µg/mL (≈ 29.5 µM)
E. coli ATCC BAA-196 [11]
  MBC: 31.2 µg/mL (≈ 59.1 µM)
  MIC: 15.6 µg/mL (≈ 29.5 µM)
Escherichia coli [12]
  zone of inhibition at 500 µg/mL: 26 ± 0.11 mm
Bacillus subtilis [13]
  zone of inhibition at 500 µg/mL: 24 ± 0.5 mm
Pseudomonas aeruginosa [14]
  zone of inhibition at 500 µg/mL: 21 ± 0.2 mm
Enterococcus faecalis [15]
  zone of inhibition at 500 µg/mL: 23 ± 0.65 mm
Fusarium oxysporum [16]
  MFC: 56.2 µg/mL (≈ 106 µM)
  MIC: 31.2 µg/mL (≈ 59.1 µM)
Candida albicans [17]
  MFC: 17.6 µg/mL (≈ 33.2 µM)
  MIC: 9.25 µg/mL (≈ 17.5 µM)
S. aureus ATCC 33591 [18]
  Mean Diameter of Inhibition Zone against MDRB: 21 ± 0.23 mm
[19]
  IC50: 3.69 ± 0.22 µM
[20]
  IC50: 2.63 ± 0.44 µM
Salmonella typhi [21]
  zone of inhibition at 500 µg/mL: 23 ± 0.65 mm
Staphylococcus aureus [22]
  zone of inhibition at 500 µg/mL: 25 ± 0.77 mm
Fusarium oxysporum [23]
  zone of inhibition at 500 µg/mL: 21 ± 0.16 mm
Candida albicans [24]
  zone of inhibition at 500 µg/mL: 25 ± 0.33 mm
[25]
  Mean Diameter of Inhibition Zone against MDRB: 25 ± 0.99 mm
[26]
  Mean Diameter of Inhibition Zone against MDRB: 18 ± 0.5 mm

## CCn1cc(C(=O)O)c(=O)c2cc(F)c(N3CCNCC3)cc21 [Norfloxacin, reference compound]
E. coli ATCC BAA-196 [7]
  Mean Diameter of Inhibition Zone against MDRB: 27 ± 0.98 mm
[8]; P. aeruginosa ATCC BAA-2111, read-out: MBC
  MBC: 4.69 µg/mL (≈ 14.7 µM)
[8]; P. aeruginosa ATCC BAA-2111, read-out: MIC
  MIC: 3.13 µg/mL (≈ 9.8 µM)
S. aureus ATCC 33591 [9]; S. aureus ATCC 33591, read-out: MBC
  MBC: 1.56 µg/mL (≈ 4.89 µM)
S. aureus ATCC 33591 [9]; S. aureus ATCC 33591, read-out: MIC
  MIC: 0.78 µg/mL (≈ 2.44 µM)
[10]; S. aureus ATCC 43300, read-out: MBC
  MBC: 2.81 µg/mL (≈ 8.8 µM)
[10]; S. aureus ATCC 43300, read-out: MIC
  MIC: 1.25 µg/mL (≈ 3.91 µM)
E. coli ATCC BAA-196 [11]; E. coli ATCC BAA-196, read-out: MBC
  MBC: 3.53 µg/mL (≈ 11.1 µM)
E. coli ATCC BAA-196 [11]; E. coli ATCC BAA-196, read-out: MIC
  MIC: 1.57 µg/mL (≈ 4.92 µM)
S. aureus ATCC 33591 [18]
  Mean Diameter of Inhibition Zone against MDRB: 26 ± 0.5 mm
[25]
  Mean Diameter of Inhibition Zone against MDRB: 24 ± 0.47 mm
[26]
  Mean Diameter of Inhibition Zone against MDRB: 25 ± 0.50 mm
